Read-outs that look alike come from different tables or passages of the source.
Experiments:
Lat-1 = Lat-1 (Rattus norvegicus, UniProt Q63016)
[1] = Octanol/water partition and distribution coefficients; conditions: for Log Doct 7.4: octanol distribution coefficient, pH 7.4; for Log Poct: octanol partition coefficient
[2] = Neutral fraction at pH 7.4 calculated from pKa; format: physicochemical; conditions: neutral fraction at perfusion fluid pH 7.40, calculated from pKa
[3] = rat
[4] = rat, in vivo, pH 7.4
[5] = for Brain Kin: calculated at brain blood flow […] and rat serum fu; for Extraction (unbound) / Brain vascular extraction (total): calculated at brain blood flow […]; for Extraction (unbound): free drug; for Brain vascular extraction (total): with rat serum fu
[6] = ref Hansch et al. [123], Avdeef [46] or other sources, cited from earlier work; for Log Poct: octanol partition coefficient
[7] = rat in vivo measurements; cited from earlier work
[8] = rat in vivo measurements; cited from earlier work; remark: listed apart in the source
[9] = In situ rat brain perfusion (brain uptake Kin, extraction E, BBB PS)

Chain of Lat-1 (Q63016 whole entry): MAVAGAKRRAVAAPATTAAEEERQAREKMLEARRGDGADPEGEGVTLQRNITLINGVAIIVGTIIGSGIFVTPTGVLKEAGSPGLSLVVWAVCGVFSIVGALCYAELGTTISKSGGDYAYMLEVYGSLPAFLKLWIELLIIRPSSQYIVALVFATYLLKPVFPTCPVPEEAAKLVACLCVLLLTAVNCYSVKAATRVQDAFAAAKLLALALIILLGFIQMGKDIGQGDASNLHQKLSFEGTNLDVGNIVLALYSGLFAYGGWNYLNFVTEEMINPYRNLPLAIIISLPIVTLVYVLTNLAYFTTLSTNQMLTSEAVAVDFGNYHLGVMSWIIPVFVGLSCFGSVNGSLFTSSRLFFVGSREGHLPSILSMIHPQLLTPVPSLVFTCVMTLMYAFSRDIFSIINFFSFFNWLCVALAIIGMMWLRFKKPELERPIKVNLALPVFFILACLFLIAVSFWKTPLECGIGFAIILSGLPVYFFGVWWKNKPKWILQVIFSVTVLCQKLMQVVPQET
Chain of Lat-1 (Q794F9 whole entry partner): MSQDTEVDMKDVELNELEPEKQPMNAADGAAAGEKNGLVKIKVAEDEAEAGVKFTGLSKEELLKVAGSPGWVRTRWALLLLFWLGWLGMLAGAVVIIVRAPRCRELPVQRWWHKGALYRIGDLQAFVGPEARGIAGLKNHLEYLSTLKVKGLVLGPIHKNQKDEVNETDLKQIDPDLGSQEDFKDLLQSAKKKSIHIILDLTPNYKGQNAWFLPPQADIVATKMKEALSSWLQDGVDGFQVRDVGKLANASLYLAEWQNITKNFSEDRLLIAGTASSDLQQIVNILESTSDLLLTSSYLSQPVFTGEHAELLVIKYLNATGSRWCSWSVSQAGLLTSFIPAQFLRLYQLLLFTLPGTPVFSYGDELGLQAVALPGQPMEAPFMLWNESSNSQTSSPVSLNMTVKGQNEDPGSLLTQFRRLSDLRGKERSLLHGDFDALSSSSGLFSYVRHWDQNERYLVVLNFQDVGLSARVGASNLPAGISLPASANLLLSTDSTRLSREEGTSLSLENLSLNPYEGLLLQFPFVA

| SMILES | Log Doct 7.4 [1] | fn (%) [2] [%] | half-life ([3]; brain) [min] | Log Pc [4] | Log PoS [4] | Pc [4] [×10⁻⁶ cm/s] | PcS [4] [mL/s/g] | PoS [4] [mL/s/g] | Log Po [4] | Po [4] [cm/s] | Brain Kin [5] [mL/s/g] | Extraction (unbound) [5] [%] | Brain vascular extraction (total) [5] [%] | Log Poct [6] | Log Doct pH=7.4 [6] | fu,.p [7] | Brain Vu,br [8] [mL/g] | further results |
| --- | --- | --- | --- | --- | --- | --- | --- | --- | --- | --- | --- | --- | --- | --- | --- | --- | --- | --- |
| N[C@H](C(=O)O)[C@@H]1CC(Cl)=NO1 [Acivicin] | −2.63 |  |  |  |  |  |  |  |  |  |  |  |  |  |  |  |  | LogPS (Lat-1; LAT1 substrates, tracer concentration): −3.32; PS (Lat-1; LAT1 substrates, tracer concentration, perfusion 15-30 s): 0.000479 mL/s/g; Log Poct [1]: −0.31 |
| Nc1ncnc2nc[nH]c12 [Adenine] | −2.12 |  |  |  |  |  |  |  |  |  |  |  |  |  |  |  |  |  |
| Nc1ncnc2c1ncn2[C@@H]1O[C@H](CO)[C@@H](O)[C@H]1O [Adenosine] | −1.02 |  |  |  |  |  |  |  |  |  |  |  |  |  |  |  |  |  |
| OC[C@@H](O)[C@@H](O)CO [Erythritol] |  | 100 | 160 | −6.49 | −4.49 | 0.324 | 3.2e-05 | 3.24e-05 | −6.49 | 3.24e-07 | 9.27e-05 | 0.15 | 0.15 | −2.29 | −2.29 | 1.00 | 0.50 |  |
| CC(C(=O)O)c1ccc(-c2ccccc2)c(F)c1 (stereo not shown) [Flurbiprofen] |  | 0.06 | 3.9 | −3.64 | 1.58 | 230 | 0.023 | 38.2 | −0.42 | 0.38 | 0.000144 | 61.6 | 0.60 | 3.99 | 0.91 | 6.3E−03 | 7.76 |  |
| O=C(CO)[C@@H](O)[C@H](O)[C@H](O)CO [Fructose] |  | 100 |  |  |  |  |  |  |  |  | 5.74e-06 | 2.39E-04 | 2.39E-04 | −3.20 | −3.20 | 1.00 | 0.08 | half-life [3]: 168 min; Log Pc ([9]; Pc in cm/s): −7.24; Log Po ([9]; Po in cm/s): −7.24; Log PoS ([9]; PoS in mL/s/g): −5.24; Pc ([9]; S assumed 100 cm^2/g): 0.0574 ×10⁻⁶ cm/s; Po ([9]; S assumed 100 cm^2/g): 0.0574 ×10⁻⁶ cm/s; PoS ([9]; brain vascular intrinsic PoS): 5.74e-06 mL/s/g; PcS ([9]; cerebral cortex, flow 0.1–[…], S = physiological saline, AB = artificial blood): 5.74e-06 mL/s/g; PoS ([9]; intrinsic PS of neutral solute, PoS = PcS/fn, flow 0.1–[…]): 5.74e-06 mL/s/g |
| NCC1(CC(=O)O)CCCCC1 [Gabapentin] | −1.4 |  |  |  |  |  |  |  |  |  |  |  |  |  |  |  |  | LogPS (Lat-1; rat, in vivo, pH 7.4): −2.33; PS (Lat-1; rat, in vivo, pH 7.4): 0.00473 mL/s/g; Log Poct [1]: 1.19 |
| Nc1ccn([C@@H]2O[C@H](CO)[C@@H](O)C2(F)F)c(=O)n1 [Gemcitabine] | −1.36 |  |  |  |  |  |  |  |  |  |  |  |  |  |  |  |  | Log Poct [1]: −0.470 |
| OCC(O)CO [Glycerol] |  | 100 | 145 | −6.08 | −4.08 | 0.829 | 8.3e-05 | 8.29e-05 | −6.08 | 8.29e-07 | 1.7e-06 | 0.34 | 0.34 | −1.76 | −1.76 | 1.00 | 1.04 |  |
| COc1ccc2c(c1)c(CC(=O)O)c(C)n2C(=O)c1ccc(Cl)cc1 [Indomethacin] |  | 0.05 | 19.6 | −4.12 |  | 76.6 | 0.0077 |  | −0.84 | 0.15 | 4.37e-05 | 27.3 | 0.18 | 3.51 | 0.68 | 5.7E−03 | 13.0 |  |
| Cc1c(I)c(=O)n(-c2ccccc2)n1C [Iodoantipyrine] |  | 100 | 0.5 | −2.81 | −0.81 | 1560 | 0.16 | 0.16 | −2.81 | 0.00156 | 0.0231 | 99.8 | 96.1 | 1.27 | 1.27 | 0.50 | 2 | BBB PcS [4]: 0.156 mL/s/g; Percentage printed beside the uptake curves (measure not given) [4]: 79%; Peak flow rate for 90% E ([5]; protein-free physiologic saline pH 7.4): 4.1 mL/min/g; Maximal flow—90% extraction, PcS/2.3 ([5]; protein-free saline, pH 7.4): 0.068 mL/s/g |
| OC[C@@H](O)[C@@H](O)[C@H](O)[C@H](O)CO [Mannitol] |  | 100 | 109 | −7.06 | −5.06 | 0.088 | 8.8e-06 | 8.8e-06 | −7.06 | 8.8e-08 | 8.8e-06 | 3.67E-04 | 3.67E-04 | −3.10 | −3.10 | 1.00 | 0.08 |  |
| N[C@@H](Cc1ccc(N(CCCl)CCCl)cc1)C(=O)O [Melphalan (para)] | −1.03 |  |  |  |  |  |  |  |  |  |  |  |  |  |  |  |  | Log Poct [1]: 1.79 |
| Fc1ccc([C@@H]2CCNC[C@H]2COc2ccc3c(c2)OCO3)cc1 [Paroxetine] |  | 0.32 | 83 | −2.91 | 1.59 | 1230 | 0.12 | 39.0 | −0.41 | 0.39 | 0.00164 | 99.4 | 7.4 | 3.50 | 1.00 | 0.015 | 852.0 | BBB PcS [4]: 0.12 ± 0.02 mL/s/g |
| O=C1NC(=O)C(c2ccccc2)(c2ccccc2)N1 [Phenytoin] |  | 88.4 | 6.02 | −3.58 | −1.53 | 263 | 0.026 | 0.0298 | −3.53 | 0.000298 | 0.00364 | 66.6 | 15.2 | 2.24 | 2.17 | 0.15 | 12.7 |  |
| OC[C@H]1O[C@H](OC[C@H]2O[C@H](O[C@]3(CO)O[C@H](CO)[C@@H](O)[C@@H]3O)[C@H](O)[C@@H](O)[C@@H]2O)[C@H](O)[C@@H](O)[C@H]1O [Raffinose] |  | 100 | 405 | −8.02 | −6.02 | 0.0095 | 9.5e-07 | 9.5e-07 | −8.02 | 9.5e-09 | 9.5e-07 | 3.96E-05 | 3.96E-05 | −3.89 | −3.89 | 1.00 | 0.03 |  |
| COC(=O)[C@H]1[C@H]2C[C@@H]3c4[nH]c5cc(OC)ccc5c4CCN3C[C@H]2C[C@@H](OC(=O)c2cc(OC)c(OC)c(OC)c2)[C@@H]1OC [Reserpine] |  | 83.37 | 0.77 | −3.05 | −0.97 | 898 | 0.09 | 0.11 | −2.97 | 0.00108 | 0.00749 | 97.6 | 31.2 | 1.54 | 1.46 | 0.10 | 5 |  |
| Cn1nnc2c(C(N)=O)ncn2c1=O [Temozolamide] |  | 100 | 7.65 | −4.79 | −2.79 | 16.3 | 0.0016 | 0.00163 | −4.79 | 1.63e-05 | 0.00464 | 4.3 | 5.3 | −1.04 | −1.04 | 0.80 | 1.05 |  |
| CCCC(CCC)C(=O)O [Valproic acid] |  | 0.16 | 1.86 | −4.04 | 0.46 | 91.9 | 0.0092 | 2.92 | −1.54 | 0.0292 | 0.0016 | 31.8 | 6.7 | 2.71 | 0.21 | 0.18 | 1.43 |  |

— publication PMC11650849, “Brain endothelial permeability, transport, and flow assessed over 10 orders of magnitude using the in situ brain perfusion technique” (Fluids and Barriers of the CNS, 2024)
